# From patent publication US9963518B2, “Cyclic oligosaccharides for use in the treatment and prevention of bacterial infection” (priority 2011, dated 2018)
# Tests used:
# WT Wza = WT Wza (Escherichia coli, UniProt Q9X4B7); assay: Single-channel electrical recording, blockers against wt-Wza in planar lipid bilayers; type: binding, E. coli; conditions: 2M KCl, 5 mM HEPES, 100 μM EDTA, 200 μM DTT, pH 7.5
# Protocol: The Wt Wza transporter was tested in single-channel recording, in accordance with the procedures of Naismith (Nature 2006, 444, 226-229) for its ability to form pores in planar lipid bilayers. Sequential insertions of channels in a single orientation were used to measure the conductance of a single channel because more than one channel could insert simultaneously during the first introduction, especially when protein molecules have not properly diffused yet. Repetition of experiments helped to verify conductance of a single channel. […] After collection of 37 insertions of wt Wza channel, the current of a single channel of wt Wza in 2 M KCl buffer was determined to be 1.89±0.01 pA (n=37) on average, corresponding to 18.9±0.1 pS (n=37) in conductance.
# Thirteen commercial cyclodextrins (CDs) were tested for their ability to block WT-Wza and the mutant Y110G/K375C (Table 1) including, neutral, negatively charged or positively charged cyclodextrins. Testing was carried out using electrical channel recording in high salt buffer (2M KCl, 5 mM HEPES, 100 μM EDTA, 200 μM DTT) at pH 7.5.
# [1] = test system: K30 polysaccharide transport through Wza; assay: Inhibition of K30 polysaccharide transport through Wza, phenol extraction and carbohydrate staining; type: cell-based, E. coli strain E69
# Protocol: The inhibitory effect of am8γCD, am7βCD and am6αCD were tested on live bacteria (E. coli strain E69) with K30 capsular polysaccharide (CPS) and Wza as its transporter. Isolation and staining of the polysaccharides was used. Phenol extraction was carried out in accordance with Orskov (Eur. J. Biochem.; 1980, Stirm, J. Bacteriol. 1967) to isolate the capsular polysaccharide (CPS) and lipopolysaccharide (LPS), followed by carbohydrate staining Pro-Q Emerald 300 glycoprotein stain kit (Molecular Probes) was used for staining of both the CPS and LPS. The staining time, loading volume, oxidation time and washing time after staining were optimised and the following conditions used in the assay:
# Loading volume: 3 μL of the stock aqueous polysaccharide solution (see below), mixed with 3 μL of the Laemmli sample buffer (1 mL, Bio-Rad) mixed with 2-mercaptoethanol (950 microliter:50 microliter) before use;
# Oxidation time: 30 minutes
# Further details of the microbiology and the staining procedures used are as follows: The strains were grown in the absence of or the presence of various concentrations of am8γCD overnight in M9 minimal medium until OD reached ˜0.5. Cells were collected by centrifugation of the culture at 2583×g for 20 minutes at 4° C. In the phenol extraction, volume of phenol/buffer (20 mM Tris.-HCl, 2 mM MgCl2, 20 mM NaCl, pH 8.0) to each tube with a cell pellet is calculated as OD*667 μL. […] By doing this, the cell concentration in each sample was identical so that the changes in CPS and LPS quantity of each cell on average could be compared quantitatively.
# Detailed measurement of the inhibitory effect of am8γCD towards K30 polysaccharide translocation was then performed. […] The gel was stained to generate fluorescence signals that correspond to the sugar quantity. […]
# The fluorescent intensities of the gels were measured by using the Bio-Rad Universal Hood II. […] The fluorescence intensity of each lane was processed with the Plot Lane function after illumination of the gel with UV light at 302 nm and fluorescent data collection emissions going through an Amber Filter (548-630 nm).
structure (smiles),measurement,setting,value
"NC[C@H]1O[C@@H]2O[C@H]3[C@H](O)[C@@H](O)[C@@H](O[C@H]4[C@H](O)[C@@H](O)[C@@H](O[C@H]5[C@H](O)[C@@H](O)[C@@H](O[C@H]6[C@H](O)[C@@H](O)[C@@H](O[C@H]7[C@H](O)[C@@H](O)[C@@H](O[C@H]8[C@H](O)[C@@H](O)[C@@H](O[C@H]9[C@H](O)[C@@H](O)[C@@H](O[C@H]1[C@H](O)[C@H]2O)O[C@@H]9CN)O[C@@H]8CN)O[C@@H]7CN)O[C@@H]6CN)O[C@@H]5CN)O[C@@H]4CN)O[C@@H]3CN [No. 12, Octacis (6-amino-6-deoxy)-γ-cyclodextrin]",Interaction with WT Wza,WT Wza,not observed
same,Inhibition of K30 polysaccharide transport compared with am7βCD and am6αCD,"[1]; 1 mM, E. coli strain E69, staining assay",much stronger
same,LPS fluorescent intensity at saturation,"[1]; E. coli strain E69, increasing am8γCD",around 2 times that of the control
same,IC50,"[1]; Escherichia coli, read-out: IC50 from concentration dependence of the CPS band intensity",51.2 ± 1 µM
